Species on record: Rattus norvegicus
Assay: Open TG-GATES - Regimen: Single
Format: toxicity, organism-based, Sprague-Dawley
Parameters: regimen Single, gender Male, age 6 weeks
Conditions: in vivo, po, route gavage; for APTT / Bas / Eos / Fbg / Hb / Ht / Lym / MCH / MCHC / MCV / Mono / Neu / PT / Plat / RBC / Ret / WBC: tissue Blood; for KIDNEY_L / KIDNEY_R / KIDNEY_TOTAL: tissue Kidney; for LIVER: tissue Liver; for A/G / ALP / ALT / AST / BUN / CRE / Ca / Cl / DBIL / GLC / IP / K / LDH / Na / PL / RALB / TBIL / TC / TG / TP / gamma-GTP: tissue Plasma
[1] = 150 mg/kg, 3 h, dose level Middle
[2] = 150 mg/kg, 6 h, dose level Middle
[3] = 150 mg/kg, 9 h, dose level Middle
[4] = 150 mg/kg, 24 h, dose level Middle
[5] = 500 mg/kg, 3 h, dose level High
[6] = 500 mg/kg, 6 h, dose level High
[7] = 500 mg/kg, 9 h, dose level High
[8] = 500 mg/kg, 24 h, dose level High

## CC(=O)Oc1cc(C(C)C)c(OCCN(C)C)cc1C [MOXISYLYTE]
[1]
  TERMINAL_BW: 205.7 g
  APTT: 22.9 s
  Bas: 0%
  Eos: 1%
  Fbg: 293 mg/dL
  Hb: 13.5 g/dL
  Ht: 39.8%
  Lym: 75%
  MCH: 21.3 pg
  MCHC: 33.8%
  MCV: 62.8 fL
  Mono: 1.6%
  Neu: 21.8%
  PT: 15.9 s
  Plat: 112.4 x10_4/uL
  RBC: 634.4 x10_4/ul
  Ret: 7.5%
  WBC: 68.3 x10_2/uL
  KIDNEY_L: 0.9 g
  KIDNEY_R: 0.9 g
  KIDNEY_TOTAL: 1.8 g
  LIVER: 9.3 g
  A/G: 1.3
  ALP: 1569.2 IU/L
  ALT: 44 IU/L
  AST: 81.4 IU/L
  BUN: 13.2 mg/dL
  CRE: 0.2 mg/dL
  Ca: 10.5 mg/dL
  Cl: 107.8 meq/L
  DBIL: 0.004 mg/dL
  GLC: 194 mg/dL
  IP: 9.3 mg/dL
  K: 4.2 meq/L
  LDH: 315.8 IU/L
  Na: 142 meq/L
  PL: 128.4 mg/dL
  RALB: 3.1 g/dL
  TBIL: 0.03 mg/dL
  TC: 75.8 mg/dL
  TG: 28.8 mg/dL
  TP: 5.4 g/dL
  gamma-GTP: 1.2 IU/L
[2]
  TERMINAL_BW: 206.6 g
  APTT: 21.8 s
  Bas: 0%
  Eos: 1%
  Fbg: 313.2 mg/dL
  Hb: 13.3 g/dL
  Ht: 38.6%
  Lym: 72%
  MCH: 20.8 pg
  MCHC: 34.4%
  MCV: 60.3 fL
  Mono: 2.2%
  Neu: 23.8%
  PT: 15.8 s
  Plat: 129.5 x10_4/uL
  RBC: 641.2 x10_4/ul
  Ret: 7.2%
  WBC: 67.7 x10_2/uL
  KIDNEY_L: 0.9 g
  KIDNEY_R: 0.9 g
  KIDNEY_TOTAL: 1.9 g
  LIVER: 8.9 g
  A/G: 1.2
  ALP: 1449.6 IU/L
  ALT: 39.4 IU/L
  AST: 74.8 IU/L
  BUN: 10.6 mg/dL
  CRE: 0.2 mg/dL
  Ca: 10.6 mg/dL
  Cl: 108.4 meq/L
  DBIL: 0.01 mg/dL
  GLC: 181.8 mg/dL
  IP: 9 mg/dL
  K: 4.8 meq/L
  LDH: 253.6 IU/L
  Na: 140.8 meq/L
  PL: 137.4 mg/dL
  RALB: 3 g/dL
  TBIL: 0.008 mg/dL
  TC: 72.2 mg/dL
  TG: 61.6 mg/dL
  TP: 5.4 g/dL
  gamma-GTP: 1 IU/L
[3]
  TERMINAL_BW: 208.5 g
  APTT: 21.5 s
  Bas: 0%
  Eos: 1%
  Fbg: 308.2 mg/dL
  Hb: 13.3 g/dL
  Ht: 38.7%
  Lym: 72%
  MCH: 21.2 pg
  MCHC: 34.5%
  MCV: 61.4 fL
  Mono: 2.4%
  Neu: 23.8%
  PT: 15.9 s
  Plat: 118.6 x10_4/uL
  RBC: 631.2 x10_4/ul
  Ret: 8.4%
  WBC: 93 x10_2/uL
  KIDNEY_L: 1 g
  KIDNEY_R: 1 g
  KIDNEY_TOTAL: 1.9 g
  LIVER: 8.5 g
  A/G: 1.3
  ALP: 1409.6 IU/L
  ALT: 38.8 IU/L
  AST: 70.2 IU/L
  BUN: 11.4 mg/dL
  CRE: 0.2 mg/dL
  Ca: 10.5 mg/dL
  Cl: 107.8 meq/L
  DBIL: 0.008 mg/dL
  GLC: 181.8 mg/dL
  IP: 9.7 mg/dL
  K: 4.3 meq/L
  LDH: 240.2 IU/L
  Na: 141.8 meq/L
  PL: 135 mg/dL
  RALB: 3.1 g/dL
  TBIL: 0.026 mg/dL
  TC: 75.6 mg/dL
  TG: 47.4 mg/dL
  TP: 5.6 g/dL
  gamma-GTP: 1 IU/L
[4]
  TERMINAL_BW: 221.8 g
  APTT: 21.2 s
  Bas: 0%
  Eos: 0.8%
  Fbg: 313.8 mg/dL
  Hb: 13.5 g/dL
  Ht: 38.6%
  Lym: 79.6%
  MCH: 21.3 pg
  MCHC: 34.9%
  MCV: 61.2 fL
  Mono: 2%
  Neu: 17.4%
  PT: 15.8 s
  Plat: 121.2 x10_4/uL
  RBC: 632.2 x10_4/ul
  Ret: 7.7%
  WBC: 96.5 x10_2/uL
  KIDNEY_L: 1 g
  KIDNEY_R: 1 g
  KIDNEY_TOTAL: 2 g
  LIVER: 10.8 g
  A/G: 1.2
  ALP: 1617.2 IU/L
  ALT: 43.6 IU/L
  AST: 70.8 IU/L
  BUN: 17.2 mg/dL
  CRE: 0.2 mg/dL
  Ca: 11.3 mg/dL
  Cl: 106 meq/L
  DBIL: 0 mg/dL
  GLC: 179.4 mg/dL
  IP: 7.4 mg/dL
  K: 4.3 meq/L
  LDH: 247.2 IU/L
  Na: 141.8 meq/L
  PL: 163.2 mg/dL
  RALB: 3.2 g/dL
  TBIL: 0.006 mg/dL
  TC: 81.6 mg/dL
  TG: 178.8 mg/dL
  TP: 5.9 g/dL
  gamma-GTP: 1.4 IU/L
[5]
  TERMINAL_BW: 212.3 g
  APTT: 21.6 s
  Bas: 0%
  Eos: 1.2%
  Fbg: 311.2 mg/dL
  Hb: 12.6 g/dL
  Ht: 37.4%
  Lym: 72.6%
  MCH: 21.4 pg
  MCHC: 33.7%
  MCV: 63.2 fL
  Mono: 2%
  Neu: 23.6%
  PT: 16 s
  Plat: 115.9 x10_4/uL
  RBC: 590.6 x10_4/ul
  Ret: 8.3%
  WBC: 64.3 x10_2/uL
  KIDNEY_L: 0.9 g
  KIDNEY_R: 1 g
  KIDNEY_TOTAL: 1.9 g
  LIVER: 9.7 g
  A/G: 1.4
  ALP: 1326.8 IU/L
  ALT: 43 IU/L
  AST: 81.6 IU/L
  BUN: 14.6 mg/dL
  CRE: 0.1 mg/dL
  Ca: 10.6 mg/dL
  Cl: 107.8 meq/L
  DBIL: 0.014 mg/dL
  GLC: 196.8 mg/dL
  IP: 10.3 mg/dL
  K: 4.5 meq/L
  LDH: 251 IU/L
  Na: 142.2 meq/L
  PL: 132.2 mg/dL
  RALB: 3.1 g/dL
  TBIL: 0.028 mg/dL
  TC: 79 mg/dL
  TG: 33.8 mg/dL
  TP: 5.5 g/dL
  gamma-GTP: 1 IU/L
[6]
  TERMINAL_BW: 211.5 g
  APTT: 21.2 s
  Bas: 0%
  Eos: 1%
  Fbg: 318.6 mg/dL
  Hb: 13 g/dL
  Ht: 38%
  Lym: 77%
  MCH: 21.2 pg
  MCHC: 34.1%
  MCV: 62.1 fL
  Mono: 2.2%
  Neu: 19.2%
  PT: 15.6 s
  Plat: 119.7 x10_4/uL
  RBC: 611.8 x10_4/ul
  Ret: 8.1%
  WBC: 63.2 x10_2/uL
  KIDNEY_L: 1 g
  KIDNEY_R: 1 g
  KIDNEY_TOTAL: 2 g
  LIVER: 9.8 g
  A/G: 1.3
  ALP: 1572.4 IU/L
  ALT: 40.6 IU/L
  AST: 75.2 IU/L
  BUN: 11.8 mg/dL
  CRE: 0.1 mg/dL
  Ca: 10.5 mg/dL
  Cl: 107.8 meq/L
  DBIL: 0.014 mg/dL
  GLC: 194.2 mg/dL
  IP: 10 mg/dL
  K: 4.5 meq/L
  LDH: 239 IU/L
  Na: 141 meq/L
  PL: 141.6 mg/dL
  RALB: 3.1 g/dL
  TBIL: 0.026 mg/dL
  TC: 75.4 mg/dL
  TG: 42.4 mg/dL
  TP: 5.5 g/dL
  gamma-GTP: 1.2 IU/L
[7]
  TERMINAL_BW: 205.5 g
  APTT: 20.8 s
  Bas: 0%
  Eos: 0.8%
  Fbg: 351 mg/dL
  Hb: 13.6 g/dL
  Ht: 40.1%
  Lym: 69.2%
  MCH: 21.4 pg
  MCHC: 33.9%
  MCV: 63.3 fL
  Mono: 2.6%
  Neu: 27.4%
  PT: 15.8 s
  Plat: 124.5 x10_4/uL
  RBC: 633.8 x10_4/ul
  Ret: 7.8%
  WBC: 68.7 x10_2/uL
  KIDNEY_L: 0.9 g
  KIDNEY_R: 1 g
  KIDNEY_TOTAL: 1.9 g
  LIVER: 9.1 g
  A/G: 1.2
  ALP: 1633.4 IU/L
  ALT: 41 IU/L
  AST: 76.6 IU/L
  BUN: 11.4 mg/dL
  CRE: 0.1 mg/dL
  Ca: 10.4 mg/dL
  Cl: 108.6 meq/L
  DBIL: 0.018 mg/dL
  GLC: 196.6 mg/dL
  IP: 9.9 mg/dL
  K: 4.3 meq/L
  LDH: 223.6 IU/L
  Na: 142.2 meq/L
  PL: 142 mg/dL
  RALB: 3.1 g/dL
  TBIL: 0.034 mg/dL
  TC: 74.8 mg/dL
  TG: 49.4 mg/dL
  TP: 5.7 g/dL
  gamma-GTP: 1.2 IU/L
[8]
  TERMINAL_BW: 215.6 g
  APTT: 19.4 s
  Bas: 0%
  Eos: 0.8%
  Fbg: 300.6 mg/dL
  Hb: 13.4 g/dL
  Ht: 38.6%
  Lym: 76.4%
  MCH: 22.1 pg
  MCHC: 34.7%
  MCV: 63.6 fL
  Mono: 2%
  Neu: 20%
  PT: 15.8 s
  Plat: 140.3 x10_4/uL
  RBC: 607.2 x10_4/ul
  Ret: 8.2%
  WBC: 111.6 x10_2/uL
  KIDNEY_L: 1 g
  KIDNEY_R: 1 g
  KIDNEY_TOTAL: 1.9 g
  LIVER: 10.4 g
  A/G: 1.2
  ALP: 1455.6 IU/L
  ALT: 44.8 IU/L
  AST: 73.4 IU/L
  BUN: 18 mg/dL
  CRE: 0.1 mg/dL
  Ca: 11.1 mg/dL
  Cl: 106.4 meq/L
  DBIL: 0 mg/dL
  GLC: 176.8 mg/dL
  IP: 8.6 mg/dL
  K: 4.1 meq/L
  LDH: 241 IU/L
  Na: 142 meq/L
  PL: 149.8 mg/dL
  RALB: 3 g/dL
  TBIL: 0.006 mg/dL
  TC: 77 mg/dL
  TG: 100.6 mg/dL
  TP: 5.6 g/dL
  gamma-GTP: 1 IU/L
